Numbers after ± are expanded uncertainties.
Tests used:
[1] = 293.15 K; 100 kPa; Liquid; Vibrating tube method
[2] = refractive index (Na D-line) (dimensionless); details: 293.15 K; 100 kPa; Liquid; Standard Abbe refractometry

Compound | mass density [1] | refractive index [2]
CC12CCC(CC1)C(C)(C)O2 [1,3,3-trimethyl-2-oxabicyclo[2.2.2]octane] | 924.84 ± 2 kg/m3 | 1.45756 ± 0.0011
O [water] | – | 1.33299 ± 0.001
